Source: ChEMBL document CHEMBL1201862, “PubChem BioAssay data set” (2004)
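These data come from cells grown in 96-well plates and exposed to compound for 48 hours at five concentrations. The concentration for 50% growth inhibition is given as GI50.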 Activity calls are given as the source filed them. Cut-off read from the data, not from the text of the source: active = GI50 up to about 1.1 µM and inactive = higher.

Experiments:
Assay in all cases: DTP human tumour cell line panel, 48 h
[1] = tested on: CAKI-1
[2] = tested on: HL-60
[3] = tested on: XF498
[4] = tested on: KM-20L2
[5] = tested on: DMS-273
[6] = tested on: EKVX
[7] = tested on: HCT-116
[8] = tested on: NCI-H226
[9] = tested on: SNB-78
[10] = tested on: RPMI-8226
[11] = tested on: M19-MEL
[12] = tested on: SW-620
[13] = tested on: HT-29
[14] = tested on: SK-MEL-5
[15] = tested on: SR
[16] = tested on: DU-145
[17] = tested on: MCF7
[18] = tested on: BT-549
[19] = tested on: Hs-578T
[20] = tested on: NCI/ADR-RES

| Structure (SMILES) | GI50 [1] | GI50 [2] | GI50 [3] | GI50 [4] | GI50 [5] | GI50 [6] | GI50 [7] | GI50 [8] | GI50 [9] | GI50 [10] | GI50 [11] | GI50 [12] | GI50 [13] | GI50 [14] | GI50 [15] | GI50 [16] | GI50 [17] | GI50 [18] | GI50 [19] | GI50 [20] |
| --- | --- | --- | --- | --- | --- | --- | --- | --- | --- | --- | --- | --- | --- | --- | --- | --- | --- | --- | --- | --- |
| O=c1c2cc(Br)ccc2nc(CNc2ccccc2)n1-c1ccccc1 | 3.02 µM (inactive) | 16.8 µM (inactive) | 15.7 µM (inactive) | 59 µM (inactive) | 25.8 µM (inactive) | 21.9 µM (inactive) | 13.4 µM (inactive) | 18.5 µM (inactive) | 21.1 µM (inactive) | 8.97 µM (inactive) | 13.9 µM (inactive) | 12.7 µM (inactive) | 16.7 µM (inactive) | 15.6 µM (inactive) | 6.52 µM (inactive) |  |  |  |  |  |
| CCOC(=O)CSc1cc[nH]c(=O)n1 | > 100 µM (inactive) | > 100 µM (inactive) | 75 µM (inactive) | > 100 µM (inactive) | > 100 µM (inactive) | > 100 µM (inactive) | > 100 µM (inactive) |  | > 100 µM (inactive) | > 100 µM (inactive) | > 100 µM (inactive) | > 100 µM (inactive) | > 100 µM (inactive) | > 100 µM (inactive) |  |  |  |  |  |  |
| CCCCCCCCCCCCCCCC(=O)OCC1OC(OC)C2NP(=O)(N(CCCl)CCCl)OC1C2O (stereo not drawn) | 0.752 µM (active) | 0.117 µM (active) | 2.31 µM (inactive) | 15.8 µM (inactive) | 0.152 µM (active) | 22 µM (inactive) | 3.3 µM (inactive) | 10.9 µM (inactive) | 3.3 µM (inactive) | 2.51 µM (inactive) | 15.6 µM (inactive) | 2.22 µM (inactive) | 17.1 µM (inactive) | 7.53 µM (inactive) | 0.0177 µM (active) | 7.41 µM (inactive) | 0.366 µM (active) | 2.3 µM (inactive) |  |  |
| NCc1cccc(O)c1O | > 100 µM (inactive) | 38.7 µM (inactive) | > 100 µM (inactive) | > 100 µM (inactive) | > 100 µM (inactive) | > 100 µM (inactive) | 79.8 µM (inactive) | > 100 µM (inactive) | > 100 µM (inactive) | > 100 µM (inactive) | 48.9 µM (inactive) | > 100 µM (inactive) | > 100 µM (inactive) | > 100 µM (inactive) | > 100 µM (inactive) |  |  |  |  |  |
| CCOC(=O)N1CCc2cc(OC)c(OC)cc2/C1=C\c1ccc(OC)c(OC)c1 |  | 19.5 µM (inactive) | > 10 µM (inactive) | 21.2 µM (inactive) | 25.5 µM (inactive) | 28.1 µM (inactive) | 21.9 µM (inactive) | 23.4 µM (inactive) | 35.7 µM (inactive) | 24.4 µM (inactive) | 26.1 µM (inactive) | 32.7 µM (inactive) | 19 µM (inactive) |  | 29.1 µM (inactive) |  |  |  |  |  |
| CC(=O)OC1COC(n2c(=S)n(-c3ccccc3)c(=O)c3cc(Br)ccc32)C(OC(C)=O)C1OC(C)=O (stereo not drawn) | 42 µM (inactive) | > 100 µM (inactive) | 19.3 µM (inactive) | > 100 µM (inactive) | 45.8 µM (inactive) | > 100 µM (inactive) | 23.9 µM (inactive) | 83.4 µM (inactive) | 29 µM (inactive) | 33.9 µM (inactive) | 53.6 µM (inactive) | > 100 µM (inactive) | 72.1 µM (inactive) | 54.8 µM (inactive) |  |  |  |  |  |  |
| COc1ccccc1C(=O)Nc1ccc(Cl)c(C(=O)OC(C)C)c1 | > 67 µM (inactive) | > 41.1 µM (inactive) | 21.9 µM (inactive) | 28.6 µM (inactive) | 35.3 µM (inactive) | 39.9 µM (inactive) | 39.1 µM (inactive) | 47.4 µM (inactive) | 42 µM (inactive) | 18.3 µM (inactive) | 30.8 µM (inactive) | > 61.1 µM (inactive) | 27.4 µM (inactive) | 31.8 µM (inactive) |  | 49.2 µM (inactive) | 42 µM (inactive) | 64.9 µM (inactive) | > 100 µM (inactive) | 16.4 µM (inactive) |
| COC(=O)/C=C1\CCC(C)O1 (stereo not drawn) | > 100 µM (inactive) | > 100 µM (inactive) | > 100 µM (inactive) | > 100 µM (inactive) | > 100 µM (inactive) | > 100 µM (inactive) | > 100 µM (inactive) |  | > 100 µM (inactive) | > 100 µM (inactive) | > 100 µM (inactive) | > 100 µM (inactive) | > 100 µM (inactive) | > 100 µM (inactive) |  |  |  |  |  |  |
| C=C1C[C@]23C[C@@]1(O)CC[C@H]2[C@@]12C=C[C@H](O)[C@@](C)(C(=O)O1)[C@H]2[C@@H]3C(=O)O [GIBBERELLIN A3] | > 100 µM (inactive) | > 100 µM (inactive) | > 100 µM (inactive) | > 100 µM (inactive) | > 100 µM (inactive) | > 100 µM (inactive) | > 100 µM (inactive) | > 100 µM (inactive) | > 100 µM (inactive) | > 100 µM (inactive) | > 100 µM (inactive) | > 100 µM (inactive) | > 100 µM (inactive) | > 100 µM (inactive) | > 100 µM (inactive) |  |  |  |  |  |
| Cc1c[n+]2c3ccccc3c3ccccc3c2s1.[O-][Cl+3]([O-])([O-])[O-] | 3.2 µM (inactive) | 14.2 µM (inactive) | 3.19 µM (inactive) | 1.33 µM (inactive) | 5.3 µM (inactive) | 4.89 µM (inactive) | 6.37 µM (inactive) | 0.536 µM (active) | 0.721 µM (active) | 8.15 µM (inactive) | 4.2 µM (inactive) | 5.4 µM (inactive) | 14.1 µM (inactive) | 5.35 µM (inactive) | 3.33 µM (inactive) |  |  |  |  |  |
| C[C@]12CCC3c4ccc(OC(=O)c5ccccc5)cc4CC[C@H]3C1CC[C@@H]2OC(=O)C12OC1CCC2=O (stereo partly drawn) |  | 1.9 µM (inactive) | 5.82 µM (inactive) | 5.89 µM (inactive) | 5.01 µM (inactive) | 6.61 µM (inactive) | 3.03 µM (inactive) | 14.9 µM (inactive) | 6.34 µM (inactive) | 4.23 µM (inactive) | 5.96 µM (inactive) | 2.64 µM (inactive) | 3.34 µM (inactive) | 4.69 µM (inactive) | 3.31 µM (inactive) |  |  |  |  |  |
| CC1(O)C(C)(O)C(C)(O)C1(C)O (stereo not drawn) | > 100 µM (inactive) | > 100 µM (inactive) | > 100 µM (inactive) | > 100 µM (inactive) | > 100 µM (inactive) | > 100 µM (inactive) | > 100 µM (inactive) | > 100 µM (inactive) | > 100 µM (inactive) |  | > 100 µM (inactive) | > 100 µM (inactive) | > 100 µM (inactive) | > 100 µM (inactive) |  |  |  |  |  |  |
| O=C(/C(=N/Nc1ccccc1)c1ccc([N+](=O)[O-])cc1)c1ccc([N+](=O)[O-])cc1 | > 100 µM (inactive) |  | > 100 µM (inactive) | > 100 µM (inactive) | > 100 µM (inactive) | > 100 µM (inactive) | > 100 µM (inactive) |  | > 100 µM (inactive) | 93.3 µM (inactive) | > 100 µM (inactive) | > 100 µM (inactive) | 20.7 µM (inactive) | > 100 µM (inactive) | > 100 µM (inactive) |  |  |  |  |  |
| CCCCNC(=O)OCC(COc1ccccc1OC)OC(=O)NCCCC (stereo not drawn) | > 100 µM (inactive) | > 100 µM (inactive) | > 100 µM (inactive) | > 100 µM (inactive) | > 100 µM (inactive) | > 100 µM (inactive) | > 100 µM (inactive) | > 100 µM (inactive) | > 100 µM (inactive) | 95.9 µM (inactive) | > 100 µM (inactive) | > 100 µM (inactive) | > 100 µM (inactive) | 87.5 µM (inactive) |  |  |  |  |  |  |
| CC(C)C.C[N+](C)(C)C.OC(c1ccccc1)(C(F)(F)F)C(F)(F)F.OC(c1ccccc1)(C(F)(F)F)C(F)(F)F.[SiH3-] | 11.3 µM (inactive) |  | 11.9 µM (inactive) | 2.29 µM (inactive) | 10.2 µM (inactive) | 3.73 µM (inactive) | 3.46 µM (inactive) | 1.02 µM (active) | 10.3 µM (inactive) | 4.43 µM (inactive) | 12.2 µM (inactive) | 5 µM (inactive) | 3.64 µM (inactive) | 10.4 µM (inactive) | 2.09 µM (inactive) |  |  |  |  |  |
| CCOC(=O)NN1C(=O)C(=P(c2ccccc2)(c2ccccc2)c2ccccc2)C(C(=O)OC)=C1C | > 100 µM (inactive) | > 100 µM (inactive) | > 100 µM (inactive) | > 100 µM (inactive) | > 100 µM (inactive) | > 100 µM (inactive) | > 100 µM (inactive) | > 100 µM (inactive) | > 100 µM (inactive) | > 100 µM (inactive) | > 100 µM (inactive) | > 100 µM (inactive) | > 100 µM (inactive) | > 100 µM (inactive) | > 100 µM (inactive) |  |  |  |  |  |
